From patent publication US8691815B2, “Substituted oxindole derivatives, drugs containing said derivatives and the use thereof” (AbbVie Deutschland GmbH & Co. KG, priority 2005, dated 2014) come the findings set out here.

The term Ki denotes a dissociation constant, usually derived from enzyme kinetics or from competition with a known ligand.

Structures can show the parent of a compound that is named as a salt. Where only a bound is given, the exact number is not on record here.

The assay deals with T1, human vasopressin V1b receptor (Homo sapiens, UniProt P47901).
T1 construct: expressed in transfected cells; host or cells: CHO-K1 (cell line hV1b-3H2_CHO), membrane preparation
T1 sequence (P47901 1-424): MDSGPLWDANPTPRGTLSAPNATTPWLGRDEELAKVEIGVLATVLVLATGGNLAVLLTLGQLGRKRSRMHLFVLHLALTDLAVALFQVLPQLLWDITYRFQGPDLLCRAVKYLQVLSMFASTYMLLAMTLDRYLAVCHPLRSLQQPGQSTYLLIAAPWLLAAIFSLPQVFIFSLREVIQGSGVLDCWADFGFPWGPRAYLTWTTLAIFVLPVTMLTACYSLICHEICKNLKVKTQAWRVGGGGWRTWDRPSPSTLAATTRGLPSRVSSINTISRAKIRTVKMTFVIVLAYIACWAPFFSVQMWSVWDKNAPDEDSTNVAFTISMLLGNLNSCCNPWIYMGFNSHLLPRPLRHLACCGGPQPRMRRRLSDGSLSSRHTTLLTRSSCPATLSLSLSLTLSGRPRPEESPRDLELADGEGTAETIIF
Nature of the assay: Vasopressin V1b receptor binding assay. Conditions: membranes from CHO-K1 cells with stably expressed human V1b receptors, displacement of 1.5 nM 3H-AVP. In a few lines:
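Membranes were incubated with radioligand for 60 min at room temperature in 50 mM Tris, 10 mM MgCl2, 0.1% BSA, pH 7.4, with 2% DMSO final. Nonspecific binding was defined with 1 uM AVP. Bound ligand was collected by GF/B filtration and counted by scintillation, and binding parameters were derived by nonlinear regression.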

`CCCNCc1ccc(C2(N3CCC[C@H]3C(=O)N(C)C)C(=O)N(S(=O)(=O)c3ccc(OC)cc3)c3ccc(Cl)cc32)c(OC)c1` (stereo partly drawn) [Example 85, (S)-1-[5-Chloro-1-(4-methoxybenzenesulfonyl)-3-(2-methoxy-4-propylaminomethyl-phenyl)-2-oxo-2,3-dihydro-1H-indol-3-yl]pyrrolidine-2-dimethylcarboxamide, trifluoroacetic acid salt] registered a Ki of less than 1 nM.
The molecule `CCN(CC)Cc1ccc(C2(N3CCC[C@H]3C(=O)N(C)C)C(=O)N(S(=O)(=O)c3ccc(OC)cc3)c3ccc(Cl)cc32)c(OC)c1` (stereo partly drawn) [Example 86, (S)-1-[5-Chloro-3-(4-diethylaminomethyl-2-methoxyphenyl)-1-(4-methoxybenzene-sulfonyl)-2-oxo-2,3-dihydro-1H-indol-3-yl]pyrrolidine-2-dimethylcarboxamide, trifluoroacetic acid salt] returned a Ki of less than 1 nM.
With `COc1ccc(S(=O)(=O)N2C(=O)C(c3ccc(CN4CCC4)cc3OC)(N3CCC[C@H]3C(=O)N(C)C)c3cc(Cl)ccc32)cc1` (stereo partly drawn) [Example 87, (S)-1-[3-(4-Azetidin-1-ylmethyl-2-methoxyphenyl)-5-chloro-1-(4-methoxybenzene-sulfonyl)-2-oxo-2,3-dihydro-1H-indol-3-yl]pyrrolidine-2-dimethylcarboxamide, trifluoroacetic acid salt], the inhibition constant (Ki) is less than 1 nM.
With `COc1ccc(S(=O)(=O)N2C(=O)C(c3ccc(CN(C)C(C)C)cc3OC)(N3CCC[C@H]3C(=O)N(C)C)c3cc(Cl)ccc32)cc1` (stereo partly drawn) [Example 88, (S)-1-[5-Chloro-3-{4-[(isopropylmethylamino)methyl]-2-methoxyphenyl}-1-(4-methoxy-benzenesulfonyl)-2-oxo-2,3-dihydro-1H-indol-3-yl]pyrrolidine-2-dimethylcarboxamide, trifluoroacetic acid salt], the Ki is less than 1 nM.
With `COCCN(C)Cc1ccc(C2(N3CCC[C@H]3C(=O)N(C)C)C(=O)N(S(=O)(=O)c3ccc(OC)cc3)c3ccc(Cl)cc32)c(OC)c1` (stereo partly drawn) [Example 89, (S)-1-[5-Chloro-1-(4-methoxybenzenesulfonyl)-3-(2-methoxy-4-{[(2-methoxyethyl)-methylamino]methyl}phenyl)-2-oxo-2,3-dihydro-1H-indol-3-yl]pyrrolidine-2-dimethyl-carboxamide, trifluoroacetic acid salt] the figure was less than 1 nM; with `COc1ccc(S(=O)(=O)N2C(=O)C(c3ccc(CN(C)C)cc3OC)(N3CCC[C@H]3C(=O)N(C)C)c3ccccc32)cc1` (stereo partly drawn) [Example 90, (S)-1-[3-(4-Dimethylaminomethyl-2-methoxyphenyl)-1-(4-methoxybenzenesulfonyl)-2-oxo-2,3-dihydro-1H-indol-3-yl]pyrrolidine-2-dimethylcarboxamide, trifluoroacetic acid salt], 10 to 100 nM; with `COc1ccc(S(=O)(=O)N2C(=O)C(c3ccc(CN4CCCC4)cc3OC)(N3CCC[C@H]3C(=O)N(C)C)c3ccccc32)cc1` (stereo partly drawn) [Example 91, (S)-1-[1-(4-Methoxybenzenesulfonyl)-3-(2-methoxy-4-pyrrolidin-1-ylmethylphenyl)-2-oxo-2,3-dihydro-1H-indol-3-yl]pyrrolidine-2-dimethylcarboxamide, trifluoroacetic acid salt], 1 to 10 nM.
With `COc1ccc(S(=O)(=O)N2C(=O)C(c3ccc(CN4CCN(C)CC4)cc3OC)(N3CCC[C@H]3C(=O)N(C)C)c3ccccc32)cc1` (stereo partly drawn) [Example 92, (S)-1-{1-(4-Methoxybenzenesulfonyl)-3-[2-methoxy-4-(4-methylpiperazin-1-yl-methyl)phenyl]-2-oxo-2,3-dihydro-1H-indol-3-yl}-pyrrolidine-2-carboxylic acid dimethylamide, trifluoroacetic acid salt] the figure was 1 to 10 nM; with `CCNCc1ccc(C2(N3CCC[C@H]3C(=O)N(C)C)C(=O)N(S(=O)(=O)c3ccc(OC)cc3)c3ccc(Cl)cc32)c(OC)c1` (stereo partly drawn) [Example 93, (S)-1-[5-Chloro-3-(4-ethylaminomethyl-2-methoxyphenyl)-1-(4-methoxybenzene-sulfonyl)-2-oxo-2,3-dihydro-1H-indol-3-yl]pyrrolidine-2-dimethylcarboxamide, trifluoroacetic acid salt], less than 1 nM.
The molecule `COc1ccc(S(=O)(=O)N2C(=O)C(c3ccc(CNC(C)C)cc3OC)(N3CCC[C@H]3C(=O)N(C)C)c3cc(Cl)ccc32)cc1` (stereo partly drawn) [Example 94, (S)-1-[5-Chloro-3-[4-(isopropylaminomethyl)-2-methoxyphenyl]-1-(4-methoxybenzene-sulfonyl)-2-oxo-2,3-dihydro-1H-indol-3-yl]pyrrolidine-2-dimethylcarboxamide, trifluoroacetic acid salt] displayed an inhibitory constant (Ki) of less than 1 nM.
As to `COc1ccc(CN(C)C)cc1C1(N2CCC[C@H]2C(=O)N(C)C)C(=O)N(S(=O)(=O)c2ccc(C#N)cc2)c2ccc(Cl)cc21` (stereo partly drawn) [Example 95, (S)-1-[5-Chloro-1-(4-cyanobenzenesulfonyl)-3-(5-dimethylaminomethyl-2-methoxy-phenyl)-2-oxo-2,3-dihydro-1H-indol-3-yl]pyrrolidine-2-dimethylcarboxamide], the Ki fell in the range of 1 to 10 nM.
With `COc1ccc(CN2CCCC2)cc1C1(N2CCC[C@H]2C(=O)N(C)C)C(=O)N(S(=O)(=O)c2ccc(C#N)cc2)c2ccc(Cl)cc21` (stereo partly drawn) [Example 96, (S)-1-[5-Chloro-1-(4-cyanobenzenesulfonyl)-3-(2-methoxy-5-pyrrolidin-1-ylmethyl-phenyl)-2-oxo-2,3-dihydro-1H-indol-3-yl]pyrrolidine-2-dimethylcarboxamide] the figure was less than 1 nM; with `COc1ccc(CN2CCN(C)CC2)cc1C1(N2CCC[C@H]2C(=O)N(C)C)C(=O)N(S(=O)(=O)c2ccc(C#N)cc2)c2ccc(Cl)cc21` (stereo partly drawn) [Example 97, (S)-1-{5-Chloro-1-(4-cyanobenzenesulfonyl)-3-[2-methoxy-5-(4-methylpiperazin-1-yl-methyl)phenyl]-2-oxo-2,3-dihydro-1H-indol-3-yl}pyrrolidine-2-carboxylic acid dimethylamide, trifluoroacetic acid salt], less than 1 nM.
As for `COc1ccc(CN(C)C)cc1C1(N2CCC[C@H]2C(=O)N(C)C)C(=O)N(S(=O)(=O)c2ccc(F)cc2)c2ccc(Cl)cc21` (stereo partly drawn) [Example 98, (S)-1-[5-Chloro-3-(5-dimethylaminomethyl-2-methoxyphenyl)-1-(4-fluorobenzene-sulfonyl)-2-oxo-2,3-dihydro-1H-indol-3-yl]pyrrolidine-2-dimethylcarboxamide, trifluoroacetic acid salt], the figure is 1 to 10 nM.
As for `COc1cc(CN2CCNCC2)ccc1C1(N2CCC[C@H]2C(=O)N(C)C)C(=O)N(S(=O)(=O)c2ccc(C#N)cc2)c2ccc(Cl)cc21` (stereo partly drawn) [Example 99, (S)-1-[5-Chloro-1-(4-cyanobenzenesulfonyl)-3-(2-methoxy-4-piperazin-1-ylmethyl-phenyl)-2-oxo-2,3-dihydro-1H-indol-3-yl]pyrrolidine-2-dimethylcarboxamide, trifluoroacetic acid salt], the figure is less than 1 nM; as for `CCCNCc1ccc(OC)c(C2(N3CCC[C@H]3C(=O)N(C)C)C(=O)N(S(=O)(=O)c3ccc(C#N)cc3)c3ccc(Cl)cc32)c1` (stereo partly drawn) [Example 100, (S)-1-[5-Chloro-1-(4-cyanobenzenesulfonyl)-3-(2-methoxy-5-propylaminomethyl-phenyl)-2-oxo-2,3-dihydro-1H-indol-3-yl]pyrrolidine-2-dimethylcarboxamide, trifluoroacetic acid salt], less than 1 nM.
